Where “and” joins values, the source holds several entries; their conditions need not be identical. Equal values may be shown once.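 48-hour exposure; five concentrations; linearly interpolated endpoints. GI50 = concentration required for 50% inhibition of growth. At the TGI there is no net growth.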

One experiment concerns UACC-62 melanoma. Description: inhibition of tumour cell growth, NCI panel, 48 h.
Regarding `CCCN1C(=O)/C(=c2\sc3n(c2=O)C2C(NN=3)N(CC)C(=O)N2CC)c2ccccc21` (configuration not stated), the GI50 was 489 nM and the TGI was determined as 17.4 µM.

As for `CCn1c(-c2nonc2N)nc2cncc(C(=O)N3CCNCC3)c21`, the GI50 is more than 25000 nM and the TGI is more than 25 µM.

As to `c1ccc2[nH]c(-c3ccc(N4CCN(c5ccc(-c6nc7ccccc7[nH]6)cc5)CC4)cc3)nc2c1`, the GI50 was 83000 nM and the TGI was more than 100 µM.

In the case of `CCN(CC)CCOc1ccc(C(=C(C)c2ccc(Cl)cc2)c2ccc(OCCN(CC)CC)cc2)cc1`, the GI50 is 610 nM and the TGI stood at 1.18 µM.

On to `C[C@]12CC[C@H]3[C@@H](CCC4=CC(=O)CC[C@@H]43)[C@@H]1CC[C@@H]2OC(=O)N(CCCl)N=O`, for which the GI50 is 413 nM and the TGI was 18.1 µM.

`CC12CCC(=O)C=C1CCC1C2CCC2(C)C(C(=O)Cn3cnc4c(=S)nc[nH]c43)CCC12` (configuration not stated) yielded a TGI of more than 100 µM.

With `CCc1ccc(NCc2cc(OC)c(OC)c(OC)c2)cc1`, the GI50 was 220 nM and 105 nM; the TGI was 83.1 µM and > 85.3 µM.

Regarding `COc1cc2c(cc1OC)-c1ccc3cc4c(cc3c1N(CCN1CCCC1)C2)OCO4`, the GI50 was 1070 nM and the TGI was 3 µM.

`O=C(O)CS(=O)(=O)C(c1ccccc1)c1ccccc1` came in with a TGI of more than 100 µM.

Consider `C=C(C)[C@@H]1CC[C@]2(C(=O)NCCCN)CC[C@]3(C)[C@H](CC[C@@H]4[C@@]5(C)CC[C@H](O)C(C)(C)[C@@H]5CC[C@]43C)[C@@H]12`, for which the GI50 was 27400 nM and the TGI came to 93.2 µM.

On to `O=C(Nc1cccc(Cl)c1)Nc1ncc(CCNc2ncnc3ccsc23)s1`, for which the GI50 is 1100 nM and the TGI is 11.7 µM.

Turning to `CCOC(=O)Cc1c[nH]c(=S)[nH]c1=O`, the GI50 was more than 100000 nM and the TGI was more than 100 µM.

In the case of `CCc1c(C)[nH]c(/C=C2\N=C(c3ccc[nH]3)C=C2OC)c1C`, the GI50 was 341 nM and the TGI worked out at 1.59 µM.

`CCc1ccc(NC(=O)Nc2c[nH]c3ccccc23)cc1`: the GI50 is 31500 nM and the TGI is more than 51.7 µM.

Turning to `Nc1ncnc2sc(=S)c3c(c12)CCC3`, the GI50 is 27800 nM and the TGI stood at 85.2 µM.

With `N=C(N)c1nn(C2OC(CO)C(O)C2O)c2nc[nH]c(=O)c12` (configuration not stated), the GI50 was 431 nM and the TGI was 1.63 µM.

Another experiment deals with HCT-116 colon. Description: inhibition of tumour cell growth, NCI panel, 48 h.
For `CCCN1C(=O)/C(=c2\sc3n(c2=O)C2C(NN=3)N(CC)C(=O)N2CC)c2ccccc21` (configuration not stated), the GI50 is 404 nM and the TGI was 12.4 µM.

Regarding `CCn1c(-c2nonc2N)nc2cncc(C(=O)N3CCNCC3)c21`, the GI50 is more than 25000 nM and the TGI is more than 25 µM.

Take `c1ccc2[nH]c(-c3ccc(N4CCN(c5ccc(-c6nc7ccccc7[nH]6)cc5)CC4)cc3)nc2c1`: the GI50 is 5110 nM and the TGI was more than 100 µM.

As to `CCN(CC)CCOc1ccc(C(=C(C)c2ccc(Cl)cc2)c2ccc(OCCN(CC)CC)cc2)cc1`, the GI50 was 591 nM and the TGI was determined as 1.16 µM.

In the case of `C[C@]12CC[C@H]3[C@@H](CCC4=CC(=O)CC[C@@H]43)[C@@H]1CC[C@@H]2OC(=O)N(CCCl)N=O`, the GI50 is 3920 nM and the TGI worked out at 19.2 µM.

Regarding `CC12CCC(=O)C=C1CCC1C2CCC2(C)C(C(=O)Cn3cnc4c(=S)nc[nH]c43)CCC12` (configuration not stated), the TGI was more than 100 µM.

Regarding `CCc1ccc(NCc2cc(OC)c(OC)c(OC)c2)cc1`, the TGI is 10.2 µM and 27.4 µM.

On to `COc1cc2c(cc1OC)-c1ccc3cc4c(cc3c1N(CCN1CCCC1)C2)OCO4`, for which the GI50 was 477 nM and the TGI turned out to be 1.76 µM.

In turn, `O=C(O)CS(=O)(=O)C(c1ccccc1)c1ccccc1` came in with a TGI of more than 100 µM.

Regarding `C=C(C)[C@@H]1CC[C@]2(C(=O)NCCCN)CC[C@]3(C)[C@H](CC[C@@H]4[C@@]5(C)CC[C@H](O)C(C)(C)[C@@H]5CC[C@]43C)[C@@H]12`, the GI50 is 13900 nM and the TGI worked out at 62.4 µM.

Regarding `O=C(Nc1cccc(Cl)c1)Nc1ncc(CCNc2ncnc3ccsc23)s1`, the GI50 was 1600 nM and 2350 nM; the TGI was 16.1 µM and > 10 µM.

Regarding `CCOC(=O)Cc1c[nH]c(=S)[nH]c1=O`, the GI50 is more than 100000 nM and the TGI was more than 100 µM.

Take `CCc1c(C)[nH]c(/C=C2\N=C(c3ccc[nH]3)C=C2OC)c1C`: the GI50 was less than 46.2 nM.

As to `CCc1ccc(NC(=O)Nc2c[nH]c3ccccc23)cc1`, the GI50 is 32900 nM and the TGI was more than 56 µM.

Regarding `Nc1ncnc2sc(=S)c3c(c12)CCC3`, the GI50 is 31800 nM and the TGI is more than 100 µM.

In the case of `N=C(N)c1nn(C2OC(CO)C(O)C2O)c2nc[nH]c(=O)c12` (configuration not stated), the GI50 is 347 nM and the TGI was found to be 1.29 µM.

Another experiment relates to DU-145 prostate. Description: inhibition of tumour cell growth, NCI panel, 48 h.
Regarding `CCCN1C(=O)/C(=c2\sc3n(c2=O)C2C(NN=3)N(CC)C(=O)N2CC)c2ccccc21` (configuration not stated), the GI50 was 421 nM and the TGI was 11 µM.

Turning to `CCn1c(-c2nonc2N)nc2cncc(C(=O)N3CCNCC3)c21`, the GI50 was more than 25000 nM and the TGI was more than 25 µM.

In the case of `c1ccc2[nH]c(-c3ccc(N4CCN(c5ccc(-c6nc7ccccc7[nH]6)cc5)CC4)cc3)nc2c1`, the GI50 was 37500 nM and the TGI is more than 100 µM.

As for `CCN(CC)CCOc1ccc(C(=C(C)c2ccc(Cl)cc2)c2ccc(OCCN(CC)CC)cc2)cc1`, the GI50 is 1090 nM and the TGI worked out at 3.47 µM.

Turning to `C[C@]12CC[C@H]3[C@@H](CCC4=CC(=O)CC[C@@H]43)[C@@H]1CC[C@@H]2OC(=O)N(CCCl)N=O`, the GI50 is 433 nM and the TGI amounted to 4.41 µM.

Regarding `CC12CCC(=O)C=C1CCC1C2CCC2(C)C(C(=O)Cn3cnc4c(=S)nc[nH]c43)CCC12` (configuration not stated), the TGI stood at 66.4 µM.

For `CCc1ccc(NCc2cc(OC)c(OC)c(OC)c2)cc1`, the TGI was > 100 µM and 19.5 µM.

As for `COc1cc2c(cc1OC)-c1ccc3cc4c(cc3c1N(CCN1CCCC1)C2)OCO4`, the GI50 was 376 nM and the TGI was 2.5 µM.

The values above are taken from PubChem BioAssay (NCI).
